From PubChem BioAssay (NCI) come the findings set out here.

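Five compound concentrations were applied to cells in 96-well plates for 48 hours; endpoints were derived by simple linear interpolation of the resulting dose-response curve. TGI is the concentration that stops growth completely.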

The first assay deals with 786-0 renal. The assay is described as follows: DTP human tumour cell line panel, 48 h.
For the compound `Cc1n(CC(C)C)c2c([n+]1C)C(=O)c1ccccc1C2=O`, the TGI stood at 3.41 µM.
The same measure, in the same setting: next, `N[C@@H]1CCN(c2c(F)cc3c(=O)c(C(=O)O)cn4c3c2Oc2c-4ccc3c2ccc2ccccc23)C1`: 39.6 µM.
In the case of `Cc1ccc(C2(O)CSC(=NC34CC5CC(CC(C5)C3)C4)N2C(P(=O)(O)O)P(=O)(O)O)cc1` (stereo not drawn), the TGI was > 100 µM.
Still for that read-out and setting: to `CC(C)CCNC(=O)c1ccc(CNC(=O)/C=C/c2cccc(Oc3ccccc3)c2)cc1` belongs 69.3 µM; to `C/C(=N\NS(=O)(=O)c1ccc(C)cc1)c1ccccn1`, > 100 µM; to `Cc1ccc2c(ccc(/C=C/c3ccc(O)c4ncccc34)[n+]2C)c1`, 26.7 µM.
`CCOC(=O)c1ccc(N=C/C=C(\Nc2ccc(C(=O)OCC)cc2)C23CC4CC(CC(C4)C2)C3)cc1`: the TGI was > 100 µM.
Still for that read-out and setting: next, `Cc1ccc(C(=O)N/N=C(\N=Nc2cccc([N+](=O)[O-])c2)c2ccc(N(CCC#N)CCC#N)cc2C)cc1`: > 100 µM; `O=C(O)c1c2c(cc3c1CC(Cc1ccccc1)C3=O)CCC2` (stereo not drawn): > 100 µM.
Same read-out and setting: next, `OC(CC1CCCCN1)c1ccc2c(c1)oc1ccccc12` (stereo not drawn): > 100 µM; `C=CCCON(C(=O)OC(C)(C)C)c1ccccc1`: > 100 µM; `O=C1OC(CCCN2CCCCC2)(c2ccccc2)CC12CCCC2` (stereo not drawn): > 100 µM.
The compound `COC(=O)[C@@H]1C=C[C@H](OC2OC(COC(C)=O)C(OC(C)=O)C(OC(C)=O)C2OC(C)=O)n2c(=O)n(-c3ccccc3)c(=O)n21` (stereo partly drawn) came in with a TGI of 2.83 µM.
Take `C=CCn1c(N)c(C#N)c(C#N)c1CCC`: the total growth inhibition concentration (TGI) was > 100 µM.
As to `COC(=O)C1=C(OC(=O)/C(=C/c2ccccc2)c2ccc(Cl)cc2Cl)C(C(=O)OC)[C@@]2(O)[C@@H](C(=O)OC)[C@H](C)C[C@@H]1[C@@H]2C(=O)OC` (stereo partly drawn), the TGI was > 100 µM.
Still for that read-out and setting: to `C#CCn1c(=O)c(I)cn(/C(=C/C(=O)OCC)C(=O)OCC)c1=O` belongs 3.09 µM; to `CS(=O)(=O)C(C#N)c1nc2ccccc2nc1Cl` (stereo not drawn), > 100 µM.

The test system of a further assay is A498 renal. The assay is described as follows: DTP human tumour cell line panel, 48 h.
`Cc1n(CC(C)C)c2c([n+]1C)C(=O)c1ccccc1C2=O` yielded a TGI of 1.27 µM.
Still for that read-out and setting: to `N[C@@H]1CCN(c2c(F)cc3c(=O)c(C(=O)O)cn4c3c2Oc2c-4ccc3c2ccc2ccccc23)C1` belongs > 100 µM; to `Cc1ccc(C2(O)CSC(=NC34CC5CC(CC(C5)C3)C4)N2C(P(=O)(O)O)P(=O)(O)O)cc1` (stereo not drawn), > 100 µM; to `CC(C)CCNC(=O)c1ccc(CNC(=O)/C=C/c2cccc(Oc3ccccc3)c2)cc1`, > 100 µM.
Turning to `C/C(=N\NS(=O)(=O)c1ccc(C)cc1)c1ccccn1`, the TGI was > 100 µM.
Take `Cc1ccc2c(ccc(/C=C/c3ccc(O)c4ncccc34)[n+]2C)c1`: the TGI was determined as 26.5 µM.
Still for that read-out and setting: to `CCOC(=O)c1ccc(N=C/C=C(\Nc2ccc(C(=O)OCC)cc2)C23CC4CC(CC(C4)C2)C3)cc1` belongs > 100 µM; to `Cc1ccc(C(=O)N/N=C(\N=Nc2cccc([N+](=O)[O-])c2)c2ccc(N(CCC#N)CCC#N)cc2C)cc1`, > 81.6 µM; to `O=C(O)c1c2c(cc3c1CC(Cc1ccccc1)C3=O)CCC2` (stereo not drawn), > 100 µM.
For `OC(CC1CCCCN1)c1ccc2c(c1)oc1ccccc12` (stereo not drawn), the TGI was found to be 64.7 µM.
On the same count and under the same terms, next, `C=CCCON(C(=O)OC(C)(C)C)c1ccccc1`: > 100 µM.
The same measure, in the same setting: to `O=C1OC(CCCN2CCCCC2)(c2ccccc2)CC12CCCC2` (stereo not drawn) belongs 98.4 µM; to `COC(=O)[C@@H]1C=C[C@H](OC2OC(COC(C)=O)C(OC(C)=O)C(OC(C)=O)C2OC(C)=O)n2c(=O)n(-c3ccccc3)c(=O)n21` (stereo partly drawn), 20 µM; to `C=CCn1c(N)c(C#N)c(C#N)c1CCC`, > 100 µM.
Same read-out and setting: next, `COC(=O)C1=C(OC(=O)/C(=C/c2ccccc2)c2ccc(Cl)cc2Cl)C(C(=O)OC)[C@@]2(O)[C@@H](C(=O)OC)[C@H](C)C[C@@H]1[C@@H]2C(=O)OC` (stereo partly drawn): > 100 µM; `C#CCn1c(=O)c(I)cn(/C(=C/C(=O)OCC)C(=O)OCC)c1=O`: 33.7 µM.
In the case of `CS(=O)(=O)C(C#N)c1nc2ccccc2nc1Cl` (stereo not drawn), the TGI is > 100 µM.

Another assay relates to ACHN renal. The assay is described as follows: DTP human tumour cell line panel, 48 h.
For `Cc1n(CC(C)C)c2c([n+]1C)C(=O)c1ccccc1C2=O`, the TGI amounted to 3.53 µM.
The same measure, in the same setting: to `N[C@@H]1CCN(c2c(F)cc3c(=O)c(C(=O)O)cn4c3c2Oc2c-4ccc3c2ccc2ccccc23)C1` belongs 4.25 µM; to `Cc1ccc(C2(O)CSC(=NC34CC5CC(CC(C5)C3)C4)N2C(P(=O)(O)O)P(=O)(O)O)cc1` (stereo not drawn), > 100 µM.
For the compound `CC(C)CCNC(=O)c1ccc(CNC(=O)/C=C/c2cccc(Oc3ccccc3)c2)cc1`, the TGI is > 100 µM.
On the same count and under the same terms, next, `C/C(=N\NS(=O)(=O)c1ccc(C)cc1)c1ccccn1`: 83.3 µM.
Same read-out and setting: to `Cc1ccc2c(ccc(/C=C/c3ccc(O)c4ncccc34)[n+]2C)c1` belongs 33.1 µM.
As for `CCOC(=O)c1ccc(N=C/C=C(\Nc2ccc(C(=O)OCC)cc2)C23CC4CC(CC(C4)C2)C3)cc1`, the TGI was > 100 µM.
Take `Cc1ccc(C(=O)N/N=C(\N=Nc2cccc([N+](=O)[O-])c2)c2ccc(N(CCC#N)CCC#N)cc2C)cc1`: the TGI is > 100 µM.
Regarding `O=C(O)c1c2c(cc3c1CC(Cc1ccccc1)C3=O)CCC2` (stereo not drawn), the TGI is > 100 µM.
For `OC(CC1CCCCN1)c1ccc2c(c1)oc1ccccc12` (stereo not drawn), the TGI was > 100 µM.
Same read-out and setting: to `C=CCCON(C(=O)OC(C)(C)C)c1ccccc1` belongs > 100 µM.
Same read-out and setting: next, `O=C1OC(CCCN2CCCCC2)(c2ccccc2)CC12CCCC2` (stereo not drawn): > 100 µM; `COC(=O)[C@@H]1C=C[C@H](OC2OC(COC(C)=O)C(OC(C)=O)C(OC(C)=O)C2OC(C)=O)n2c(=O)n(-c3ccccc3)c(=O)n21` (stereo partly drawn): 3.17 µM.
On the same count and under the same terms, next, `C=CCn1c(N)c(C#N)c(C#N)c1CCC`: > 100 µM; `COC(=O)C1=C(OC(=O)/C(=C/c2ccccc2)c2ccc(Cl)cc2Cl)C(C(=O)OC)[C@@]2(O)[C@@H](C(=O)OC)[C@H](C)C[C@@H]1[C@@H]2C(=O)OC` (stereo partly drawn): > 100 µM; `C#CCn1c(=O)c(I)cn(/C(=C/C(=O)OCC)C(=O)OCC)c1=O`: 3.27 µM.
For the compound `CS(=O)(=O)C(C#N)c1nc2ccccc2nc1Cl` (stereo not drawn), the TGI is > 100 µM.

For a further assay, the system named is CAKI-1 renal. Kind of assay: DTP human tumour cell line panel, 48 h.
In the case of `Cc1n(CC(C)C)c2c([n+]1C)C(=O)c1ccccc1C2=O`, the TGI is > 21.7 µM.
Same read-out and setting: next, `N[C@@H]1CCN(c2c(F)cc3c(=O)c(C(=O)O)cn4c3c2Oc2c-4ccc3c2ccc2ccccc23)C1`: > 100 µM.
Same read-out and setting: to `Cc1ccc(C2(O)CSC(=NC34CC5CC(CC(C5)C3)C4)N2C(P(=O)(O)O)P(=O)(O)O)cc1` (stereo not drawn) belongs > 100 µM; to `CC(C)CCNC(=O)c1ccc(CNC(=O)/C=C/c2cccc(Oc3ccccc3)c2)cc1`, > 100 µM.
Still for that read-out and setting: next, `C/C(=N\NS(=O)(=O)c1ccc(C)cc1)c1ccccn1`: > 100 µM; `Cc1ccc2c(ccc(/C=C/c3ccc(O)c4ncccc34)[n+]2C)c1`: 33.3 µM; `CCOC(=O)c1ccc(N=C/C=C(\Nc2ccc(C(=O)OCC)cc2)C23CC4CC(CC(C4)C2)C3)cc1`: > 100 µM.
As for `Cc1ccc(C(=O)N/N=C(\N=Nc2cccc([N+](=O)[O-])c2)c2ccc(N(CCC#N)CCC#N)cc2C)cc1`, the TGI is > 100 µM.
On the same count and under the same terms, to `O=C(O)c1c2c(cc3c1CC(Cc1ccccc1)C3=O)CCC2` (stereo not drawn) belongs > 100 µM; to `OC(CC1CCCCN1)c1ccc2c(c1)oc1ccccc12` (stereo not drawn), > 100 µM; to `C=CCCON(C(=O)OC(C)(C)C)c1ccccc1`, > 100 µM.
For `O=C1OC(CCCN2CCCCC2)(c2ccccc2)CC12CCCC2` (stereo not drawn), the TGI is > 100 µM.
As for `COC(=O)[C@@H]1C=C[C@H](OC2OC(COC(C)=O)C(OC(C)=O)C(OC(C)=O)C2OC(C)=O)n2c(=O)n(-c3ccccc3)c(=O)n21` (stereo partly drawn), the total growth inhibition concentration (TGI) was 2.7 µM.
The same measure, in the same setting: next, `C=CCn1c(N)c(C#N)c(C#N)c1CCC`: > 100 µM.
Still for that read-out and setting: next, `COC(=O)C1=C(OC(=O)/C(=C/c2ccccc2)c2ccc(Cl)cc2Cl)C(C(=O)OC)[C@@]2(O)[C@@H](C(=O)OC)[C@H](C)C[C@@H]1[C@@H]2C(=O)OC` (stereo partly drawn): > 100 µM; `C#CCn1c(=O)c(I)cn(/C(=C/C(=O)OCC)C(=O)OCC)c1=O`: 3.38 µM.
Still for that read-out and setting: next, `CS(=O)(=O)C(C#N)c1nc2ccccc2nc1Cl` (stereo not drawn): > 100 µM.

A word on the TGI: it is the concentration at which net growth stops.
